# In patent publication US20230000868A1, “USE OF 2-PHENYL-6-(1H-IMIDAZOL-1-YL) QUINAZOLINE FOR THE PREVENTION OF ABUSE AND OF SIDE EFFECTS OF AT LEAST ONE OPIOID” (ROTTAPHARM BIOTECH S.R.L., priority 2019, published 2023):
# “Also recorded” adds a separate entry of the source. Where two headings read alike, the source gives them in different places.
# Assays:
# [1] = Opioid-induced constipation (faecal number 16 h after drug treatment)
# Description: The experiments were conducted according to the procedure described by Harada et al. (J. Pharmacol. Exp. Ther. 2017, 362: 78-84). Wistar rats were used in this model. Fecal excretion was evaluated at the end of the dark phase of the light/dark cycle, when most activities and feeding of albino rats take place. Drugs were administered 2 h before the dark phase of the light/dark cycle, and the feces were collected and counted 16 h after drug treatment. In this experimental paradigm, CR4056 1 or 6 mg/kg was administered orally 15 min before morphine or codeine. A full analgesic dose of morphine (10 mg/kg subcutaneous) or codeine (12 mg/kg oral) were administered 15 minutes after CR4056 or vehicle.
# [2] = Conditioned place preference (CPP)
# Excerpt: This test exploits the tendency of rats to associate the environment where they are located with the effect of drugs administered during a conditioning period. The experiment was done in a wooden apparatus consisting of two lateral chambers (30×25 cm, length×width) with different visual and tactile properties and a central “neutral” chamber, smaller than the others (12×25 cm, length×width) with total white floor and walls. The lateral chambers had different decoration of walls (points or stripes) and different type of floor (smooth or rough). These differences can be recognized by rats, and thus associated with the effect of drug or vehicle treatment. All walls were 38.5 cm high. Four days before the preconditioning phase, the light/dark cycle was inverted; all phases of experiments were performed during the dark phase. On the preconditioning day (day 1), Wistar rats (Charles River) were placed in the neutral chamber and for 15 min they were free to explore all the environments of the apparatus (van der Kam E. L. et al. Pain, 2008, 136:373-379). The time spent in each chamber was recorded with a video tracking software (Ethovision XT 13, Noldus information technology). Rats that spent over 60% of time in one of two lateral chambers were not admitted to the conditioning phase: for admitted animals, the “preferred” chamber was therefore the one where a rat spent between 50% and 60% of time during preconditioning (while the “unpreferred” chamber was the opposite one). After preconditioning, rats were randomly assigned to the experimental groups (n=16). A total of 256 rats were used in this model. During the 2 days of the conditioning phase rats were treated with the test drug(s) (day 2) or vehicle (day 3). On the first conditioning day rats were treated with the test drug(s) and were confined in the preconditioning unpreferred lateral chamber (now defined paired chamber), with no access to the other chambers of the apparatus for 40 min. On the second day of conditioning rats were treated with vehicle and were located in the opposite chamber (unpaired chamber). The control group received vehicle in both chambers. CR4056 or its vehicle were administered 40 min before conditioning, whereas morphine or its vehicle were administered immediately before conditioning. There was no treatment on the test day (day 4), when rats were placed in the neutral chamber with the possibility to explore all chambers of the apparatus. The time spent in each chamber was recorded.
# CR4056 (1 mg/kg) and morphine (1 mg/kg) alone or in co-administration were administered every other day. After 8 days of conditioning the test day was held as described above.
# [3] = Open field test (distance travelled, sedation)
# Description: The so-called open field test was used as a first model and the experiments were performed according to the procedure described by Haleem and Nawaz (Pain, 2017, 18:19-28). Drugs were administered 60 min (CR4056 or its vehicle, p.o.) and 30 min (morphine or its vehicle, s.c.) before the open field test. The video tracking was performed using the software Ethovision XT 13 (Noldus Information Technology), to assess the “distance travelled” as the primary parameter of sedation in this model. The test was performed every day after 4 days of repeated treatment.
# [4] = Inflammatory pain induced by complete Freund adjuvant (CFA); assay type: in vivo, rat; details: CR4056 1 mg/kg alone; FIG. 1, described as known effects
# Excerpt: Previous art in the scientific literature describes that imidazoline I2 receptor agonists potentiate morphine-induced analgesia.
# [5] = Sedation rating scale; assay type: in vivo, rat
# Excerpt: In addition, sedation was scored before each rotarod testing by the sedation rating scale. […] At each time point, a score from 0 (maximum sedation) to 5 (absent sedation) was assigned to each of the 8 parameters. The sum of the scores produced the total score.
# [6] = single administration, Morphine 1 mg/Kg
# [7] = single administration, Morphine 2.5 mg/Kg
# [8] = single administration, Morphine 5 mg/Kg
# [9] = morphine 1 mg/kg alone vs control rats
smiles,measurement,setting,value
"COc1ccc2c3c1O[C@H]1[C@@H](O)C=C[C@H]4[C@@H](C2)N(C)CC[C@@]341 [Codeine, codeine]",defecation (faecal number),"[1]; codeine 12 mg/kg oral, 16 h after treatment, vs vehicle or CR4056",significant decrease in defecation
"c1ccc(-c2ncc3cc(-n4ccnc4)ccc3n2)cc1 [CR4056, 2-phenyl-6-(1H-imidazol-1-yl) quinazoline]",place preference,"[2]; rat, in vivo, 6 mg/kg",did not induce place preference
same,locomotor activity (sedation),"[3]; in vivo, po, 1 mg/kg",not sedative per se
same,analgesic effect,[4],non-analgesic
"CN1CC[C@]23c4c5ccc(O)c4O[C@H]2[C@@H](O)C=C[C@H]3[C@H]1C5 [Morphine, morphine]",preference for the paired chamber,"[2]; acute administration, morphine 1 mg/kg",did not induce preference
same,preference for the paired chamber (time paired vs unpaired),"[2]; acute administration, morphine 2.5 mg/kg",induced a statistically significant difference
same,preference for the paired chamber (time paired vs unpaired),"[2]; acute administration, morphine 5 mg/kg",induced a statistically significant difference
same,%(P − U),"[2]; repeated administrations, 8 days of conditioning, Morphine 1 mg/kg",+14%
same,Δ(P − U) ± ES,"[2]; repeated administrations, 8 days of conditioning, Morphine 1 mg/kg, (*) paired t-test < 0.05",95 ± 17 (*)
same,Seconds in Unpaired chamber (U),"[2]; repeated administrations, every other day, 8 days of conditioning, Morphine 1 mg/kg",295 s
same,preference for the paired chamber,"[2]; repeated conditionings, morphine 1 mg/kg alone",induced preference
same,%(P − U),[2]; [6],1.2%
same,Seconds in Unpaired chamber (U),[2]; [6],341 s
same,Δ(P − U) ± ES,[2]; [6],7.6 ± 9.4
same,%(P − U),[2]; [7],17.1%
same,Seconds in Unpaired chamber (U),[2]; [7],291 s
same,%(P − U),[2]; [8],20.2%
same,Seconds in Unpaired chamber (U),[2]; [8],266 s
same,faecal number,"[1]; morphine 10 mg/kg subcutaneous, 16 h, P<0.05 vs vehicle",significant decrease in faecal number; also recorded: significantly reduced faecal count
same,locomotor activity (sensitization),"[3]; morphine 1-2.5 mg/kg, increased locomotor activity over 4 days of repeated treatment",modest sensitization
same,locomotor activity (sedation),"[3]; morphine s.c. at doses higher than 5 mg/kg, 4 days of repeated treatment",clear sedative effect
same,locomotor activity (sedation),"[3]; morphine s.c., lower doses (not higher than 5 mg/kg)",not sedative
same,sedation scores,[5]; [9],no significant changes in performance
same,sedation scores,[5]; morphine 10 mg/kg vs controls,clearly sedative
same,rotarod performance,[9],no significant changes in performance
same,rotarod performance,morphine 10 mg/kg vs controls,clearly sedative
